# Marks after values point to notes of the source that are not given here.
# Tests used:
# Type in all cases: in vivo
# Septoria tritici = assay: Test E: wheat leaf blotch, test suspension sprayed on wheat seedlings, disease rating; conditions: 200 ppm test suspension; for pest or weed control at 200 ppm: Zymoseptoria tritici, 504 h;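 for all read-outs here: 200 ppm unless marked * meaning 40 ppm or ** meaning 10 ppm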
# [1] = tested on: Erysiphe graminis f. sp. tritici; assay: Test A: wheat powdery mildew, test suspension sprayed on wheat seedlings, disease rating; conditions: for pest or weed control at 200 ppm: Blumeria graminis, 192 h
# Septoria nodorum = assay: Test D: wheat glume blotch, test suspension sprayed on wheat seedlings, disease rating; conditions: for pest or weed control at 200 ppm: Parastagonospora nodorum, 216 h
# [2] = tested on: Puccinia recondite f sp. tritici; assay: Test B: wheat leaf rust, test suspension sprayed on wheat seedlings, disease rating;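 note: 200 ppm unless marked * meaning 40 ppm or ** meaning 10 ppm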
# Phytophthora infestans = assay: whole plant or invertebrate; conditions: for pest or weed control at 200 ppm: Phytophthora infestans, in Solanum lycopersicum, 120 h, read-out: Test J disease control rating
# Pythium aphanidermatum = assay: Test L: bluegrass pythium blight, test suspension sprayed on bluegrass seedlings, disease rating; conditions: for pest or weed control at 200 ppm: Pythium aphanidermatum, 120 h;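 for all read-outs here: 200 ppm unless marked * meaning 40 ppm or ** meaning 10 ppm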
# Fusarium graminearum = assay: whole plant or invertebrate; conditions: for pest or weed control at 200 ppm: Fusarium graminearum, in Triticum aestivum, 192 h, read-out: Test C disease control rating
# [3] = 200 ppm test suspension, 100 = 100% disease control, 0 = no control
structure (smiles),measurement,setting,value
C[C@@H](CO)Nc1nccc(-c2c(-c3ccc(F)cc3)nn3c2CCCC3)n1 [compound 48],Test E disease control rating,Septoria tritici,99%
same,Test A disease control rating,[1]; [3],0%
same,Test D disease control rating,Septoria nodorum; 200 ppm test suspension,0%
same,Test B disease control rating,[2]; 200 ppm test suspension,99%
same,Test J disease control rating,Phytophthora infestans; 200 ppm test suspension,99%
same,Test L disease control rating,Pythium aphanidermatum; 200 ppm test suspension,100%
same,Test C disease control rating,Fusarium graminearum; 200 ppm test suspension,99%
"CC(C)Nc1nccc(-c2c(-c3ccc(F)cc3)nn3c2CS(=O)(=O)CC3)n1 [Compound 114, 4-[2-(4-fluorophenyl)-6,7-dihydro-5,5-dioxido-4H-pyrazolo[5,1-c][1,4]thiazin-3-yl]-N-(1-methylethyl)-2-pyrimidinamine]",pest or weed control at 200 ppm,Septoria tritici,86%
same,pest or weed control at 200 ppm,[1]; [3],57%
same,pest or weed control at 200 ppm,Septoria nodorum; 200 ppm test suspension,73%
same,pest or weed control at 200 ppm,"[2]; Puccinia, 192 h, 200 ppm test suspension",100%
same,pest or weed control at 200 ppm,Phytophthora infestans,100%
same,pest or weed control at 200 ppm,Pythium aphanidermatum; 200 ppm test suspension,100%
same,pest or weed control at 200 ppm,Fusarium graminearum,94%
CC(C)N(O)c1nccc(-c2c(-c3ccc(F)cc3)nn3c2CS(=O)(=O)CC3)n1 [compound 115],Test A disease control rating,[1]; 40 ppm test suspension (*),0* %
same,Test D disease control rating,Septoria nodorum; 40 ppm test suspension (*),69* %
same,Test B disease control rating,[2]; 40 ppm test suspension (*),63* %
same,Test J disease control rating,Phytophthora infestans; 40 ppm test suspension (*),73* %
same,Test C disease control rating,Fusarium graminearum; 40 ppm test suspension (*),0* %
C#CCNc1nccc(-c2c(-c3ccc(F)cc3)nn3c2CCCC3)n1 [compound 58],Test A disease control rating,[1]; 40 ppm test suspension (*),0* %
same,Test D disease control rating,Septoria nodorum; 40 ppm test suspension (*),82* %
same,Test B disease control rating,[2]; 40 ppm test suspension (*),0* %
same,Test J disease control rating,Phytophthora infestans; 40 ppm test suspension (*),26* %
same,Test L disease control rating,Pythium aphanidermatum; 40 ppm test suspension (*),62* %
same,Test C disease control rating,Fusarium graminearum; 40 ppm test suspension (*),100* %
Cc1cc(-c2nn3c(c2-c2ccnc(NC(C)CO)n2)CCCC3)ccc1F (stereo not shown) [compound 32],Test A disease control rating,[1]; 40 ppm test suspension (*),0* %
same,Test D disease control rating,Septoria nodorum; 40 ppm test suspension (*),0* %
same,Test B disease control rating,[2]; 40 ppm test suspension (*),74* %
same,Test J disease control rating,Phytophthora infestans; 40 ppm test suspension (*),98* %
same,Test L disease control rating,Pythium aphanidermatum; 40 ppm test suspension (*),99* %
same,Test C disease control rating,Fusarium graminearum; 40 ppm test suspension (*),0* %
C[C@H](CO)Nc1nccc(-c2c(-c3ccc(F)cc3)nn3c2CCCC3)n1 [compound 57],Test A disease control rating,[1]; 40 ppm test suspension (*),0* %
same,Test D disease control rating,Septoria nodorum; 40 ppm test suspension (*),0* %
same,Test B disease control rating,[2]; 40 ppm test suspension (*),86* %
same,Test J disease control rating,Phytophthora infestans; 40 ppm test suspension (*),99* %
same,Test L disease control rating,Pythium aphanidermatum; 40 ppm test suspension (*),100* %
same,Test C disease control rating,Fusarium graminearum; 40 ppm test suspension (*),0* %
"CC(C)Nc1nccc(-c2c(-c3ccccc3)nn3c2CCCC3)n1 [Compound 26, N-(1-methylethyl)-4-(4,5,6,7-tetrahydro-2-phenylpyrazolo[1,5-a]pyridin-3-yl)-2-pyrimidinamine]",pest or weed control at 200 ppm,Septoria tritici,96%
same,pest or weed control at 200 ppm,[1]; [3],91%
same,pest or weed control at 200 ppm,Septoria nodorum; 200 ppm test suspension,99%
same,pest or weed control at 200 ppm,Phytophthora infestans,91%
same,pest or weed control at 200 ppm,Pythium aphanidermatum; 200 ppm test suspension,100%
OCCNc1nccc(-c2c(-c3ccc(F)cc3)nn3c2CCCC3)n1 [compound 25],Test E disease control rating,Septoria tritici,97%
same,Test A disease control rating,[1]; [3],96%
same,Test D disease control rating,Septoria nodorum; 200 ppm test suspension,87%
same,Test J disease control rating,Phytophthora infestans; 200 ppm test suspension,83%
same,Test L disease control rating,Pythium aphanidermatum; 200 ppm test suspension,100%
"C[C@@H](CO)Nc1nccc(-c2c(-c3ccccc3)nn3c2CCCC3)n1 [Compound 54, (2S)-2-[[4-(4,5,6,7-tetrahydro-2-phenylpyrazolo[1,5-c]pyridine-3-yl)-2-pyrimidinyl]amino]-1-propanol]",Test A disease control rating,[1]; 40 ppm test suspension (*),0* %
same,Test D disease control rating,Septoria nodorum; 40 ppm test suspension (*),60* %
same,Test B disease control rating,[2]; 40 ppm test suspension (*),98* %
same,Test J disease control rating,Phytophthora infestans; 40 ppm test suspension (*),99* %
same,Test L disease control rating,Pythium aphanidermatum; 40 ppm test suspension (*),100* %
same,Test C disease control rating,Fusarium graminearum; 40 ppm test suspension (*),95* %
CN(C)Nc1nccc(-c2c(-c3ccc(F)cc3)nn3c2CCCC3)n1 [compound 23],Test E disease control rating,Septoria tritici,98%
same,Test A disease control rating,[1]; [3],99%
same,Test D disease control rating,Septoria nodorum; 200 ppm test suspension,94%
same,Test J disease control rating,Phytophthora infestans; 200 ppm test suspension,71%
same,Test L disease control rating,Pythium aphanidermatum; 200 ppm test suspension,0%
Clc1ccc(-c2nn3c(c2-c2ccnc(NC4CC4)n2)CCCC3)cc1 [compound 22],Test E disease control rating,Septoria tritici,94%
same,Test A disease control rating,[1]; [3],50%
same,Test D disease control rating,Septoria nodorum; 200 ppm test suspension,87%
same,Test J disease control rating,Phytophthora infestans; 200 ppm test suspension,83%
same,Test L disease control rating,Pythium aphanidermatum; 200 ppm test suspension,77%
Cc1cc(-c2nn3c(c2-c2ccnc(NC(C)C)n2)CCCC3)ccc1F [compound 33],Test A disease control rating,[1]; 40 ppm test suspension (*),0* %
same,Test D disease control rating,Septoria nodorum; 40 ppm test suspension (*),94* %
same,Test B disease control rating,[2]; 40 ppm test suspension (*),77* %
same,Test J disease control rating,Phytophthora infestans; 40 ppm test suspension (*),95* %
same,Test L disease control rating,Pythium aphanidermatum; 40 ppm test suspension (*),97* %
same,Test C disease control rating,Fusarium graminearum; 40 ppm test suspension (*),98* %
"Fc1ccc(-c2nn3c(c2-c2ccnc(NC4CC4)n2)COCC3)cc1 [Compound 109, N-cyclopropyl-4-[2-(4-fluorophenyl)-6,7-dihydro-4H-pyrazolo[5,1-c][1,4]oxazin-3-yl]-2-pyrimidinamine]",pest or weed control at 200 ppm,Septoria tritici,100%
same,pest or weed control at 200 ppm,[1]; [3],92%
same,pest or weed control at 200 ppm,Septoria nodorum; 200 ppm test suspension,0%
same,pest or weed control at 200 ppm,Phytophthora infestans,99%
same,pest or weed control at 200 ppm,Pythium aphanidermatum; 200 ppm test suspension,100%
same,pest or weed control at 200 ppm,Fusarium graminearum,100%
C#CCNc1nccc(-c2c(-c3ccccc3)nn3c2CCCC3)n1 [compound 59],Test A disease control rating,[1]; 40 ppm test suspension (*),0* %
same,Test D disease control rating,Septoria nodorum; 40 ppm test suspension (*),94* %
same,Test B disease control rating,[2]; 40 ppm test suspension (*),92* %
same,Test J disease control rating,Phytophthora infestans; 40 ppm test suspension (*),71* %
same,Test L disease control rating,Pythium aphanidermatum; 10 ppm test suspension (**),67** %
same,Test C disease control rating,Fusarium graminearum; 40 ppm test suspension (*),99* %
Cc1cc(-c2nn3c(c2-c2ccnc(NC4CC4)n2)CCCC3)ccc1F [compound 56],Test A disease control rating,[1]; 40 ppm test suspension (*),86* %
same,Test D disease control rating,Septoria nodorum; 40 ppm test suspension (*),99* %
same,Test B disease control rating,[2]; 40 ppm test suspension (*),0* %
same,Test J disease control rating,Phytophthora infestans; 40 ppm test suspension (*),93* %
same,Test L disease control rating,Pythium aphanidermatum; 40 ppm test suspension (*),100* %
same,Test C disease control rating,Fusarium graminearum; 40 ppm test suspension (*),100* %
CC(C)Nc1nccc(-c2c(-c3ccc(Cl)cc3)nn3c2CCCC3)n1 [compound 21],Test E disease control rating,Septoria tritici,100%
same,Test A disease control rating,[1]; [3],96%
same,Test D disease control rating,Septoria nodorum; 200 ppm test suspension,82%
same,Test J disease control rating,Phytophthora infestans; 200 ppm test suspension,52%
same,Test L disease control rating,Pythium aphanidermatum; 200 ppm test suspension,76%
COCC(C)Nc1nccc(-c2c(-c3ccccc3)nn3c2CCCC3)n1 (stereo not shown) [compound 53],Test A disease control rating,[1]; 40 ppm test suspension (*),0* %
same,Test D disease control rating,Septoria nodorum; 40 ppm test suspension (*),84* %
same,Test B disease control rating,[2]; 40 ppm test suspension (*),98* %
same,Test J disease control rating,Phytophthora infestans; 40 ppm test suspension (*),99* %
same,Test L disease control rating,Pythium aphanidermatum; 40 ppm test suspension (*),100* %
same,Test C disease control rating,Fusarium graminearum; 40 ppm test suspension (*),99* %
C[Si](C)(C)CNc1nccc(-c2c(-c3ccccc3)nn3c2CCCC3)n1 [compound 55],Test A disease control rating,[1]; 40 ppm test suspension (*),0* %
same,Test D disease control rating,Septoria nodorum; 40 ppm test suspension (*),44* %
same,Test B disease control rating,[2]; 40 ppm test suspension (*),91* %
same,Test J disease control rating,Phytophthora infestans; 40 ppm test suspension (*),17* %
same,Test L disease control rating,Pythium aphanidermatum; 40 ppm test suspension (*),0* %
same,Test C disease control rating,Fusarium graminearum; 40 ppm test suspension (*),99* %
Fc1ccc(-c2nn3c(c2-c2ccnc(NC4CC4)n2)CCCC3)c(F)c1 [compound 28],Test E disease control rating,Septoria tritici,96%
same,Test A disease control rating,[1]; [3],94%
same,Test D disease control rating,Septoria nodorum; 200 ppm test suspension,92%
same,Test J disease control rating,Phytophthora infestans; 200 ppm test suspension,95%
same,Test L disease control rating,Pythium aphanidermatum; 200 ppm test suspension,98%
COCC(C)Nc1nccc(-c2c(-c3ccc(F)c(C)c3)nn3c2CCCC3)n1 (stereo not shown) [compound 62],Test A disease control rating,[1]; 40 ppm test suspension (*),78* %
same,Test D disease control rating,Septoria nodorum; 40 ppm test suspension (*),60* %
same,Test B disease control rating,[2]; 40 ppm test suspension (*),80* %
same,Test J disease control rating,Phytophthora infestans; 40 ppm test suspension (*),96* %
same,Test L disease control rating,Pythium aphanidermatum; 40 ppm test suspension (*),99* %
same,Test C disease control rating,Fusarium graminearum; 40 ppm test suspension (*),98* %
Cc1cc(-c2nn3c(c2-c2ccnc(NC[Si](C)(C)C)n2)CCCC3)ccc1F [compound 50],Test A disease control rating,[1]; 40 ppm test suspension (*),0* %
same,Test D disease control rating,Septoria nodorum; 40 ppm test suspension (*),0* %
same,Test B disease control rating,[2]; 40 ppm test suspension (*),0* %
same,Test J disease control rating,Phytophthora infestans; 40 ppm test suspension (*),31* %
same,Test L disease control rating,Pythium aphanidermatum; 40 ppm test suspension (*),68* %
same,Test C disease control rating,Fusarium graminearum; 40 ppm test suspension (*),92* %

# Reference: patent US8288375B2, “Fungicidal bicyclic pyrazoles” (E.I. du Pont de Nemours and Company, priority 2007, dated 2012)
